Structures can show the parent of a compound that is named as a salt.
Experiment: Test 4: Inhibition of Cellular Release of Amyloid Peptide 1-40
Type: cell-based, Chinese hamster
Settings: Cricetulus griseus, CHO, 24 h; read-out: Amyloid-β1-40 release IC50
Procedure: Chinese hamster ovary cells are transfected with the human gene for amyloid precursor protein. The cells are plated at a density of 8000 cells/well into 96-well microtiter plates and cultivated for 24 hours in DMEM cell culture medium containing 10% FCS. The test compound is added to the cells at various concentrations, and the cells are cultivated for 24 hours in the presence of the test compound.

Row | Compound | IC50 [nM]
1 | COc1cnc(C(=O)Nc2ccc(F)c([C@]3(C)CO[C@@](C)(C(F)(F)F)C(N)=N3)n2)c(C)c1 [Example 25, 5-Methoxy-3-methyl-pyridine-2-carboxylic acid [6-((3R,6R)-5-amino-3,6-dimethyl-6-trifluoromethyl-3,6-dihydro-2H-[1,4]oxazin-3-yl)-5-fluoro-pyridin-2-yl]amide] | 76
2 | Cc1cnc(C(=O)Nc2ccc(F)c([C@]3(C)CO[C@@](C)(C(F)(F)F)C(N)=N3)n2)cn1 [Example 33, 5-Methyl-pyrazine-2-carboxylic acid [6-((3R,6R)-5-amino-3,6-dimethyl-6-trifluoromethyl-3,6-dihydro-2H-[1,4]oxazin-3-yl)-5-fluoro-pyridin-2-yl]amide] | 130
3 | C[C@@]1(c2cccc(NC(=O)c3ncc(C#N)cc3N)n2)CO[C@@](C)(C(F)(F)F)C(N)=N1 [Example 19, 3-Amino-5-cyano-pyridine-2-carboxylic acid [6-((3R,6R)-5-amino-3,6-dimethyl-6-trifluoromethyl-3,6-dihydro-2H-[1,4]oxazin-3-yl)-pyridin-2-yl]-amide] | 48
4 | Cc1cc(OCF)cnc1C(=O)Nc1ccc(F)c([C@]2(C)CO[C@@](C)(C(F)(F)F)C(N)=N2)n1 [Example 32, 5-Fluoromethoxy-3-methyl-pyridine-2-carboxylic acid [6-((3R,6R)-5-amino-3,6-dimethyl-6-trifluoromethyl-3,6-dihydro-2H-[1,4]oxazin-3-yl)-5-fluoro-pyridin-2-yl]amide] | 26
5 | CC1(c2cccc(NC(=O)c3ccc(Br)cn3)n2)COCC(N)=N1 (racemic) [Example 2, 5-Bromo-pyridine-2-carboxylic acid [6-(5-amino-3-methyl-3,6-dihydro-2H-[1,4]-oxazin-3-yl)-pyridin-2-yl]-amide] | 58
6 | [2H]c1nc(C(=O)Nc2cc(C3(CF)COCC(N)=N3)ccn2)c(C([2H])([2H])[2H])c([2H])c1Cl (centres unmarked) [Example 13, 5-{2-[(5-Chloro-4,6-dideutero-3-trideuteromethyl-pyridine-2-carbonyl)-amino]-pyridin-4-yl}-5-fluoromethyl-5,6-dihydro-2H-[1,4]oxazin-3-yl-ammonium acetate] | 550
7 | Cc1cc(C#N)cnc1C(=O)Nc1cc([C@]2(C)COC(CF)(CF)C(N)=N2)c(F)cn1 [Example 37, 5-Cyano-3-methyl-pyridine-2-carboxylic acid [4-((R)-5-amino-6,6-bis-fluoromethyl-3-methyl-3,6-dihydro-2H-[1,4]oxazin-3-yl)-5-fluoro-pyridin-2-yl]-amide] | 83
8 | C[C@@]1(c2cccc(NC(=O)c3ccc(Br)cn3)n2)COCC(N)=N1 [Example 1, 5-Bromo-pyridine-2-carboxylic acid [6-((R)-5-amino-3-methyl-3,6-dihydro-2H-[1,4]-oxazin-3-yl)-pyridin-2-yl]-amide] | 41
9 | C[C@@]1(c2cccc(NC(=O)c3ccc(C#N)cn3)n2)CO[C@@](C)(C(F)(F)F)C(N)=N1 [Example 10, 5-Cyano-pyridine-2-carboxylic acid [6-((3R,6R)-5-amino-3,6-dimethyl-6-trifluoromethyl-3,6-dihydro-2H-[1,4]oxazin-3-yl)-pyridin-2-yl]-amide] | 17
10 | C[C@@]1(c2cc(NC(=O)c3ncc(C#N)cc3Cl)ncc2F)CO[C@@](C)(C(F)(F)F)C(N)=N1 [Example 35, 3-Chloro-5-cyano-pyridine-2-carboxylic acid [4-((3R,6R)-5-amino-3,6-dimethyl-6-trifluoromethyl-3,6-dihydro-2H-[1,4]oxazin-3-yl)-5-fluoro-pyridin-2-yl]-amide] | 140
11 | Cc1cc(C#N)cnc1C(=O)Nc1cccc([C@]2(C)CO[C@@](C)(C(F)(F)F)C(N)=N2)n1 [Example 8, 5-Cyano-3-methyl-pyridine-2-carboxylic acid [6-((3R,6R)-5-amino-3,6-dimethyl-6-trifluoro-methyl-3,6-dihydro-2H-[1,4]oxazin-3-yl)-pyridin-2-yl]-amide] | 6
12 | COCCn1ccc2nc(C(=O)Nc3ccc(F)c([C@]4(C)CO[C@@](C)(C(F)(F)F)C(N)=N4)n3)c(N)nc21 [Example 43, 3-Amino-5-(2-methoxy-ethyl)-5H-pyrrolo[2,3-b]pyrazine-2-carboxylic acid [6-((3R,6R)-5-amino-3,6-dimethyl-6-trifluoromethyl-3,6-dihydro-2H-[1,4]oxazin-3-yl)-5-fluoro-pyridin-2-yl]amide] | 370
13 | Cc1cc(C#N)cnc1C(=O)Nc1ccc(F)c([C@@]2(C)CO[C@@](C)(C(F)(F)F)C(N)=N2)n1 [Example 12, 5-Cyano-3-methyl-pyridine-2-carboxylic acid [6-((3S,6R)-5-amino-3,6-dimethyl-6-trifluoromethyl-3,6-dihydro-2H-[1,4]oxazin-3-yl)-5-fluoro-pyridin-2-yl]-amide] | 280
14 | Cc1cc(C#N)cnc1C(=O)Nc1ccc(F)c([C@]2(C(F)F)COCC(N)=N2)n1 [Example 38, 5-Cyano-3-methyl-pyridine-2-carboxylic acid [6-((R)-5-amino-3-difluoromethyl-3,6-dihydro-2H-[1,4]oxazin-3-yl)-5-fluoro-pyridin-2-yl]-amide] | 5
15 | Cc1cc(C#N)cnc1C(=O)Nc1ccc(F)c([C@]2(C)CO[C@@](C)(C(F)(F)F)C(N)=N2)n1 [Example 11, 5-Cyano-3-methyl-pyridine-2-carboxylic acid [6-((3R,6R)-5-amino-3,6-dimethyl-6-trifluoromethyl-3,6-dihydro-2H-[1,4]oxazin-3-yl)-5-fluoro-pyridin-2-yl]-amide] | 2
16 | Cc1cc(C#N)cnc1C(=O)Nc1ccc(F)c([C@@]2(C(F)F)COCC(N)=N2)n1 [Example 39, 5-Cyano-3-methyl-pyridine-2-carboxylic acid [6-((S)-5-amino-3-difluoromethyl-3,6-dihydro-2H-[1,4]oxazin-3-yl)-5-fluoro-pyridin-2-yl]-amide] | 290
17 | C[C@@]1(c2cccc(NC(=O)c3ncc(C#N)cc3Cl)n2)CO[C@@](C)(C(F)(F)F)C(N)=N1 [Example 20, 3-Chloro-5-cyano-pyridine-2-carboxylic acid [6-((3R,6R)-5-amino-3,6-dimethyl-6-trifluoromethyl-3,6-dihydro-2H-[1,4]oxazin-3-yl)-pyridin-2-yl]-amide] | 5
18 | NC1=NC(CF)(c2cc(NC(=O)c3ccc(Br)cn3)cnc2Cl)COC1 (centres unmarked) [Example 18, 5-Bromo-pyridine-2-carboxylic acid [5-(5-amino-3-fluoromethyl-3,6-dihydro-2H-[1,4]oxazin-3-yl)-6-chloro-pyridin-3-yl]-amide hydrochloride] | 15
19 | [2H]c1nc(C(=O)Nc2cccc(C3(CF)COCC(N)=N3)n2)c(C([2H])([2H])[2H])c([2H])c1Cl (centres unmarked) [Example 6, 5-{6-[(4,6-Dideutero-5-chloro-3-trideuteromethyl-pyridine-2-carbonyl)-amino]-pyridin-2-yl}-5-fluoromethyl-5,6-dihydro-2H-[1,4]oxazin-3-yl-ammonium trifluoro acetate] | 63
20 | Cc1cc(OC(F)F)cnc1C(=O)Nc1ccc(F)c([C@]2(C)CO[C@@](C)(C(F)(F)F)C(N)=N2)n1 [Example 29, 5-Difluoromethoxy-3-methyl-pyridine-2-carboxylic acid [6-((3R,6R)-5-amino-3,6-dimethyl-6-trifluoromethyl-3,6-dihydro-2H-[1,4]oxazin-3-yl)-5-fluoro-pyridin-2-yl]amide] | 24
